Results: patent US20180339963A1, “ANTICONVULSANT CARBAMATE DERIVATIVES” (Yissum Research Development Company of the Hebrew …, priority 2017, published 2018)
Where two headings read alike, the source gives them in different places.

Experiments:
6 Hz psychomotor seizure = 6 Hz psychomotor seizure test in mice; details: Mus musculus, ip, read-out: 6 Hz, number of mice protected/number of mice tested
hCA II = target: T1, hCA II (Homo sapiens, UniProt P00918); experiment: Stopped flow CO2 hydrase assay, hCA II; type: biochemical; details: mean from 3 assays, read-out: K1, hCA II
T1 construct: made in house
Method: (§1) An Applied Photophysics stopped-flow instrument has been used for assaying the CA catalysed CO2 hydration activity. Phenol red (at a concentration of 0.2 mM) has been used as indicator, working at the absorbance maximum of 557 nm, with 20 mM Hepes (pH 7.5) as buffer, and 20 mM Na2SO4 (for maintaining constant the ionic strength), following the initial rates of the CA-catalyzed CO2 hydration reaction for a period of 10-100 s. The CO2 concentrations ranged from 1.7 to 17 mM for the determination of the kinetic parameters and inhibition constants. […] The uncatalyzed rates were determined in the same manner and subtracted from the total observed rates. Stock solutions of inhibitor (0.1 mM) were prepared in distilled-deionized water and dilutions up to 0.01 nM were done thereafter with the assay buffer. […] The inhibition constants were obtained by non-linear least-squares methods using PRISM 3 and the Cheng-Prusoff equation, as reported earlier and represent the mean from at least three different determinations. All CA isofoms were recombinant ones obtained in-house.

hCA VII = target: T2, hCA VII (Homo sapiens, UniProt P43166); experiment: Stopped flow CO2 hydrase assay, hCA VII; type: biochemical; details: mean from 3 assays, read-out: K1, hCA VII
T2 construct: made in house
Method: as §1

hCA IV = target: T3, hCA IV (Homo sapiens, UniProt P22748); experiment: Stopped flow CO2 hydrase assay, hCA IV; type: biochemical; details: mean from 3 assays; for Ki: read-out: K1, hCA IV
T3 construct: made in house
Method: as §1

[1] = test system: maximal electroshock seizure (MES); experiment: Maximal electroshock seizure (MES) test in mice; details: Mus musculus, ip; for responders at 30 mg/kg / responders at 100 mg/kg / responders at 300 mg/kg: read-out: MES, number of mice protected/number of mice tested
hCA I = target: T4, hCA I (Homo sapiens, UniProt P00915); experiment: Stopped flow CO2 hydrase assay, hCA I; type: biochemical; details: mean from 3 assays, read-out: K1, hCAI
T4 construct: made in house
Method: as §1

mice = experiment: Neurotoxicity (minimal motor impairment, rotarod) in mice; details: mice i.p.
[2] = test system: maximal electroshock seizure (MES); experiment: Maximal electroshock seizure (MES) test in rats; details: Rattus norvegicus, po, read-out: MES-ED50, rats, p.o.

T4 sequence (P00915 whole entry): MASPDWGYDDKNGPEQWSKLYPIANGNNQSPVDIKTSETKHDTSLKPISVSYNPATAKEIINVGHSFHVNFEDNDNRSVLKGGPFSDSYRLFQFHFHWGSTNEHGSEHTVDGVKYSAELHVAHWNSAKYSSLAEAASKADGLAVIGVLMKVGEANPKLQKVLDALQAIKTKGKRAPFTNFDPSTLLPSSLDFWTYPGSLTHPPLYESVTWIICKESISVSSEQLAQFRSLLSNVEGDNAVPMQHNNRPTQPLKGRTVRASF
T3 sequence (P22748 19-284): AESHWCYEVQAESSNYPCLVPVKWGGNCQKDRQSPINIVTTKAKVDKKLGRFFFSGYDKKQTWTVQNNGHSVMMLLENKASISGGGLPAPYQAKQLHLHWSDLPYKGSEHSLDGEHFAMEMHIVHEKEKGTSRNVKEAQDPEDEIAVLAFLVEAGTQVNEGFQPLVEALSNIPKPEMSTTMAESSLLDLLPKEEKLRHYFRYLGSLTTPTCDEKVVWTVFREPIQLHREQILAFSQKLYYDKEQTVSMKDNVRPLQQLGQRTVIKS
T2 sequence (P43166 whole entry): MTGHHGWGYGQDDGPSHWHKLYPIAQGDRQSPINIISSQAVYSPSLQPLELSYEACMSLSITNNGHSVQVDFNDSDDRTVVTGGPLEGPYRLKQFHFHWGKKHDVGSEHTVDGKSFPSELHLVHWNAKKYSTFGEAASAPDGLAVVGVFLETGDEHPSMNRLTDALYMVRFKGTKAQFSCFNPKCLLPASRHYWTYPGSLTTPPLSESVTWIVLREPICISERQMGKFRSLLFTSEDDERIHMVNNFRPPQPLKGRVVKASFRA

| Structure (SMILES) | responders at 30 mg/kg (6 Hz psychomotor seizure; 0.5 h) [%] | responders at 100 mg/kg (6 Hz psychomotor seizure; 0.5 h) [%] | responders at 300 mg/kg (6 Hz psychomotor seizure; 0.5 h) [%] | responders at 30 mg/kg (6 Hz psychomotor seizure; 2 h) [%] | responders at 100 mg/kg (6 Hz psychomotor seizure; 2 h) [%] | responders at 300 mg/kg (6 Hz psychomotor seizure; 2 h) [%] | Ki (hCA II) [nM] | Ki (hCA VII) [nM] | Ki (hCA IV) [nM] | melting point [°C] | responders at 30 mg/kg ([1]; 0.5 h) [%] | responders at 100 mg/kg ([1]; 0.5 h) [%] | responders at 300 mg/kg ([1]; 0.5 h) [%] | responders at 30 mg/kg ([1]; 2 h) [%] | responders at 100 mg/kg ([1]; 2 h) [%] | responders at 300 mg/kg ([1]; 2 h) [%] | Ki (hCA I) [nM] | Tox (motor impairment or sedation), number of animals affected/number of animals tested (mice; 30 mg/kg, 0.5 h) | Tox (motor impairment or sedation), number of animals affected/number of animals tested (mice; 30 mg/kg, 2.0 h) | Tox (motor impairment or sedation), number of animals affected/number of animals tested (mice; 100 mg/kg, 0.5 h) | further results |
| --- | --- | --- | --- | --- | --- | --- | --- | --- | --- | --- | --- | --- | --- | --- | --- | --- | --- | --- | --- | --- | --- |
| CC(C)C(OC(=O)Nc1ccc(S(N)(=O)=O)cc1)C(C)C [Compound 8, 2,4-dimethylpentan-3-yl (4-sulfamoylphenyl)carbamate] | 0 | 0 | 50 | 0 | 0 | 25 | 3.7 | 35.4 | 452 | 193 to 194 | 0 | 0 | 25 | 50 | 100 | 100 | 21 | 0/8 | 0/8 | 0/8 | K1, hCA IV (hCA IV): medium potency inhibitors; Tox (motor impairment or sedation), number of animals affected/number of animals tested (mice; 100 mg/kg, 2.0 h): 0/8; Tox (motor impairment or sedation), number of animals affected/number of animals tested (mice; 300 mg/kg, 0.5 h): 1/8; Tox (motor impairment or sedation), number of animals affected/number of animals tested (mice; 300 mg/kg, 2.0 h): 0/8 |
| CCC(CC)COC(=O)Nc1ccc(S(N)(=O)=O)cc1 [Compound 6, 2-ethylbutyl (4-sulfamoylphenyl)carbamate] | 0 | 25 | 25 | 0 | 0 | 25 | 5.2 | 52 | 1690 | 162 to 165 | 0 | 0 | 0 | 0 | 0 | 0 | 169 | 0/8 | 0/8 | 0/8 | Tox (motor impairment or sedation), number of animals affected/number of animals tested (mice; 100 mg/kg, 2.0 h): 0/8; Tox (motor impairment or sedation), number of animals affected/number of animals tested (mice; 300 mg/kg, 0.5 h): 0/8; Tox (motor impairment or sedation), number of animals affected/number of animals tested (mice; 300 mg/kg, 2.0 h): 0/8 |
| CCCCC(CC)COC(=O)Nc1ccc(S(N)(=O)=O)cc1 (stereo not shown) [Compound 2, 2-ethylhexyl (4-sulfamoylphenyl)carbamate] | 0 | 75 | 50 | 0 | 0 | 25 | 8.7 | > 10000 | > 10000 | 192 to 195 | 0 | 25 | 25 | 0 | 0 | 25 | 421 | 0/8 | 0/8 | 0/8 | Tox (motor impairment or sedation), number of animals affected/number of animals tested (mice; 100 mg/kg, 2.0 h): 0/8; Tox (motor impairment or sedation), number of animals affected/number of animals tested (mice; 300 mg/kg, 0.5 h): 0/8; Tox (motor impairment or sedation), number of animals affected/number of animals tested (mice; 300 mg/kg, 2.0 h): 0/8 |
| CC(C)(C)CCOC(=O)Nc1ccc(S(N)(=O)=O)cc1 [Compound 4, 3,3-dimethylbutyl (4-sulfamoylphenyl)carbamate] | 0 | 0 | 0 | 0 | 0 | 0 | 4.5 | 44.4 | 1840 | 170 to 173 | 0 | 0 | 25 | 0 | 0 | 25 | 59.5 | 0/8 | 0/8 | 0/8 | Tox (motor impairment or sedation), number of animals affected/number of animals tested (mice; 100 mg/kg, 2.0 h): 0/8; Tox (motor impairment or sedation), number of animals affected/number of animals tested (mice; 300 mg/kg, 0.5 h): 0/8; Tox (motor impairment or sedation), number of animals affected/number of animals tested (mice; 300 mg/kg, 2.0 h): 0/8 |
| NS(=O)(=O)c1ccc(NC(=O)OCCc2ccccc2)cc1 [Compound 5, phenethyl (4-sulfamoylphenyl)carbamate] | 0 | 0 | 0 | 0 | 0 | 0 | 0.6 | 24.5 | 303 | 212 to 213 | 0 | 0 | 0 | 25 | 25 | 50 | 5.9 | 0/8 | 0/8 | 0/8 | K1, hCA IV (hCA IV): medium potency inhibitors; Tox (motor impairment or sedation), number of animals affected/number of animals tested (mice; 100 mg/kg, 2.0 h): 0/8; Tox (motor impairment or sedation), number of animals affected/number of animals tested (mice; 300 mg/kg, 0.5 h): 0/8; Tox (motor impairment or sedation), number of animals affected/number of animals tested (mice; 300 mg/kg, 2.0 h): 0/8 |
| CC(COC(=O)Nc1ccc(S(N)(=O)=O)cc1)CC(C)(C)C (stereo not shown) [Compound 7, 2,4,4-trimethylpentyl (4-sulfamoylphenyl)carbamate] | 25 | 25 | 100 | 0 | 50 | 75 | 5 | 712 | 2760 | 199 to 201 | 0 | 0 | 0 | 0 | 25 | 50 | 83.5 | 0/8 | 0/8 | 0/8 | Tox (motor impairment or sedation), number of animals affected/number of animals tested (mice; 100 mg/kg, 2.0 h): 0/8; Tox (motor impairment or sedation), number of animals affected/number of animals tested (mice; 300 mg/kg, 0.5 h): 0/8; Tox (motor impairment or sedation), number of animals affected/number of animals tested (mice; 300 mg/kg, 2.0 h): 0/8 |
| CCC(C)OC(=O)Nc1ccc(S(N)(=O)=O)cc1 (stereo not shown) [Compound 11, sec-butyl(4-sulfamoylphenyl)carbamate] |  |  |  |  |  |  |  |  |  | 190 to 191 |  |  |  |  |  |  |  |  |  |  | ED50 [2]: 25 mg/kg; ED50 ([1]; read-out: MES-ED50, mice, i.p.): 75 mg/kg |
| CCCC(CCC)COC(=O)Nc1ccc(S(N)(=O)=O)cc1 [Compound 3, 2-propylpentyl (4-sulfamoylphenyl)carbamate] | 0 | 0 | 25 | 0 | 0 | 0 | 19.6 | > 10000 | > 10000 | 176 to 177 | 0 | 0 | 0 | 0 | 0 | 0 | 485 | 0/8 | 0/8 | 0/8 | Tox (motor impairment or sedation), number of animals affected/number of animals tested (mice; 100 mg/kg, 2.0 h): 0/8; Tox (motor impairment or sedation), number of animals affected/number of animals tested (mice; 300 mg/kg, 0.5 h): 0/8; Tox (motor impairment or sedation), number of animals affected/number of animals tested (mice; 300 mg/kg, 2.0 h): 0/8 |
